Test results as given in ChEMBL document CHEMBL1201862, “PubChem BioAssay data set” (2004).
The source made the active and inactive calls.

Tests used:
[1] = biological target: Glyceraldehyde-3-phosphate dehydrogenase (Homo sapiens, UniProt P04406)
[2] = biological target: T1, Alkaline phosphatase, tissue-nonspecific isozyme (Homo sapiens, UniProt P05186); experiment: potency against alkaline phosphatase TNAP – biochemical, luminescent, dose response, SAR follow-up (AID 1056)
T1 sequence (P05186 whole entry): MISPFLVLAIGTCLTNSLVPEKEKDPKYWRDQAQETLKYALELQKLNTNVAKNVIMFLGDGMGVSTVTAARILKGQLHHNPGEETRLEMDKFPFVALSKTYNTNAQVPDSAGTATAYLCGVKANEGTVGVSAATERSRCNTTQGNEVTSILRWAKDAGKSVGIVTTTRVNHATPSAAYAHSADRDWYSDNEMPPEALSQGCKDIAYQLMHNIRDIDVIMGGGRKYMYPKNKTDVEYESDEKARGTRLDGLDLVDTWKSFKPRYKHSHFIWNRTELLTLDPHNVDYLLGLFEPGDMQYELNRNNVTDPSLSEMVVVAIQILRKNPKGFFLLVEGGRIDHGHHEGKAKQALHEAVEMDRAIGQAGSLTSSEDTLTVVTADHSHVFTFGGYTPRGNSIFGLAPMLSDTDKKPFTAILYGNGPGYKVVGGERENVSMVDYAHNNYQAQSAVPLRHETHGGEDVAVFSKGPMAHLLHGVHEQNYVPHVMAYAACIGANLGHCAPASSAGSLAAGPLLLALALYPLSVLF

[3] = biological target: Voltage-dependent T-type calcium channel subunit alpha-1H (Homo sapiens, UniProt O95180); experiment: human CACNA1H calcium influx blockade – cell-based, synthetic library set 1, calcium flux (AID 493022); assay type: functional
J774.A1 = experiment: Confirmation of image-based Screening Assay for Inhibitors of Phagocytosis. [Related pubchem assays (depositor defined):AID1029, AID1643]; assay type: functional, cell-based; conditions: Mus musculus
T-cell = experiment: loss of vesicle association with mouse CD8+ T cells – mouse 2C CD8+ T cells, flow cytometry, dose response (AID 485284); assay type: functional
Mu-type opioid receptor = Mu-type opioid receptor (Homo sapiens, UniProt P35372); experiment: SAR Analysis of Antagonists of the MOR Receptor using an Image-Based Assay - Set 3. [Related pubchem assays (depositor defined):AID1777, AID1785, AID1786, AID1966, AID2133, AID2136, AID2284, AID2285, AID2420]; assay type: functional
[4] = biological target: T2, Kappa-type opioid receptor (Homo sapiens, UniProt P41145); experiment: SAR analysis of small molecule antagonists of the kappa opioid receptor via a luminescent beta-arrestin assay - Set 4. [Related pubchem assays (depositor defined):AID1777, AID1778, AID1785, AID1786, AID1966, AID2133, AID2136, AID2285]; assay type: functional
T2 sequence (P41145 whole entry): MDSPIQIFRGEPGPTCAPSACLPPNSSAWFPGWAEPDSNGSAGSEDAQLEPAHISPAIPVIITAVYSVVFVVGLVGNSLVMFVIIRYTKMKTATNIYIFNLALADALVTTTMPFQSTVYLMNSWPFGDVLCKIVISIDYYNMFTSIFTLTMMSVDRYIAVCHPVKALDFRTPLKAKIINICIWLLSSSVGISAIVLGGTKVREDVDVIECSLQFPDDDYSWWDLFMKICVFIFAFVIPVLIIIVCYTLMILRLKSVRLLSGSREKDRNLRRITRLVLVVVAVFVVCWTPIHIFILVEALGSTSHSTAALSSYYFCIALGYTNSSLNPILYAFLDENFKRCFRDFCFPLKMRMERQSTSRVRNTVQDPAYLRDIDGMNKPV

[5] = biological target: Delta-type opioid receptor (Homo sapiens, UniProt P41143); experiment: SAR Analysis of Antagonists of the DOR Receptor using an Image-Based Assay - Set 3. [Related pubchem assays (depositor defined):AID1777, AID1785]; assay type: functional;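 further: U2OS cells expressing DOR1 and beta-arrestin GFP stimulated with 100 nM SNC80; imaging of GFP-tagged beta-arrestin moving into spots after receptor activation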
Sequence of Delta-type opioid receptor (P41143 whole entry): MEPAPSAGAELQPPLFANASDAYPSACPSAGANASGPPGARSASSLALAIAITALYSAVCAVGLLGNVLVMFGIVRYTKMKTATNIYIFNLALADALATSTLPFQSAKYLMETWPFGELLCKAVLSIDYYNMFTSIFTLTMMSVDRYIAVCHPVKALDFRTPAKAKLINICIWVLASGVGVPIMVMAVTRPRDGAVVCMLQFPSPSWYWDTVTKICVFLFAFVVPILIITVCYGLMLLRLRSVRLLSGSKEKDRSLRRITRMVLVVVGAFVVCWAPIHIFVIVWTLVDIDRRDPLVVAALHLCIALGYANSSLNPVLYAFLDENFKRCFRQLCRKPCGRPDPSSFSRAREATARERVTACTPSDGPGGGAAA

[6] = biological target: T2, Kappa-type opioid receptor; experiment: SAR analysis of Antagonists of the Kappa Opioid Receptor (KOR) using an Image-Based Assay - Set 4. [Related pubchem assays (depositor defined):AID1777, AID1785]; assay type: functional
Hexokinase HKDC1 [7] = biological target: T3, Hexokinase HKDC1 (Homo sapiens, UniProt Q2TB90); experiment: activation of HKDC1 glucose phosphorylation – biochemical, W721R variant, dose response (AID 504730); assay type: functional
T3 sequence (Q2TB90 whole entry): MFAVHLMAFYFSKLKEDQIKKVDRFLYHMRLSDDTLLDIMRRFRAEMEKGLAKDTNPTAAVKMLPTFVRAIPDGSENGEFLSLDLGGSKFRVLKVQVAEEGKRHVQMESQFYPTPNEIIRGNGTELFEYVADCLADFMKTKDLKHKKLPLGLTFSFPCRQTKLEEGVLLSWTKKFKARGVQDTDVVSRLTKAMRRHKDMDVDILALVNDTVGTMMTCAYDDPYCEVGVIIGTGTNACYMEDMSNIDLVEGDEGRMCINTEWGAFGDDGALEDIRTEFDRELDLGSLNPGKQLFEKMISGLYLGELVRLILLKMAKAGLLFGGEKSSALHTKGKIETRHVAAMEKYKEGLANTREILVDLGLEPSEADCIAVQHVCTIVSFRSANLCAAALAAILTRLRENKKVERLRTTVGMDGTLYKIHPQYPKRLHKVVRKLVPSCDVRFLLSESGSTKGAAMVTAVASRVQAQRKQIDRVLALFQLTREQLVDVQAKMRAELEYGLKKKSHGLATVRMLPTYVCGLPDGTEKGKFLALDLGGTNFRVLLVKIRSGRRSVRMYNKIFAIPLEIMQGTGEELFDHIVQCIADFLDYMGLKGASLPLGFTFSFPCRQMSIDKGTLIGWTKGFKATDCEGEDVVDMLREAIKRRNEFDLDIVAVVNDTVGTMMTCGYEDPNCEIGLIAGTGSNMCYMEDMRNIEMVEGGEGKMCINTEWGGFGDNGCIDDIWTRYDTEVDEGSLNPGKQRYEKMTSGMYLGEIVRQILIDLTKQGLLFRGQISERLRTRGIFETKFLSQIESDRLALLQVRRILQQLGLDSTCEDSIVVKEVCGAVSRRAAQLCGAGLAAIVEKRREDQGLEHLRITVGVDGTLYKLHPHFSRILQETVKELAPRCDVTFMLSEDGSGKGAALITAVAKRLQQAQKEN

Nonstructural protein 1 = Nonstructural protein 1 (Influenza A virus, UniProt Q194T2); assay type: functional, Influenza A virus (A/California/07/2009(H1N1))
Hexokinase-1 = Hexokinase-1 (Homo sapiens, UniProt P19367); experiment: HK1 enzyme activation by HKDC1 hits – biochemical, selectivity assay for HKDC1 activator project, dose response (AID 504762); assay type: functional
Sequence of Hexokinase-1 (P19367 whole entry): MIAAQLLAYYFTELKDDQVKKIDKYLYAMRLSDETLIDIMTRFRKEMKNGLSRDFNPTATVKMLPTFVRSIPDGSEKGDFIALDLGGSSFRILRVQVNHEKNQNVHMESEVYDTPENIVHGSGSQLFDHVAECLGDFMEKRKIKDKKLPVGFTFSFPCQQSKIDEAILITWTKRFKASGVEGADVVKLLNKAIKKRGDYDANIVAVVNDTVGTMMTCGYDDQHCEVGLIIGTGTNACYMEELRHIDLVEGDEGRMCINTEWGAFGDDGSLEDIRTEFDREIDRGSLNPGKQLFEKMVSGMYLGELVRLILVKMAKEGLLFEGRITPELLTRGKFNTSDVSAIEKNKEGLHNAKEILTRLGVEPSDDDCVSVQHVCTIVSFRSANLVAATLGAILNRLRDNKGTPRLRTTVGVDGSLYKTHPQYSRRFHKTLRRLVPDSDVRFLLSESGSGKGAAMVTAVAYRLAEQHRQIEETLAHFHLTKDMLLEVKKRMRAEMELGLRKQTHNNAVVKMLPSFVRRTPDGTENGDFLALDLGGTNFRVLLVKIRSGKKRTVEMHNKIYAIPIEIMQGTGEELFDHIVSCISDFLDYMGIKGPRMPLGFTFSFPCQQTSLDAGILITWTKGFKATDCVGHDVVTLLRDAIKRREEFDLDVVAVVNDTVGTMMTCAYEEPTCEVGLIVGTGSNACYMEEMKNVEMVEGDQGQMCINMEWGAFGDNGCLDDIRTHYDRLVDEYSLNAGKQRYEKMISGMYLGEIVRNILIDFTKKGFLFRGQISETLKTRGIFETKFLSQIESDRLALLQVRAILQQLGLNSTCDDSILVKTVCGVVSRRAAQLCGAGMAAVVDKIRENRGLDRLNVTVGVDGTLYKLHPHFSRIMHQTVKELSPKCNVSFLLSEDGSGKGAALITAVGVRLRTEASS

HEK293 = experiment: EBV LMP1 TES2 canonical NF-kB signalling blockers – cell-based, HEK293, luciferase, cherry-pick, dose response (AID 588343); assay type: functional; conditions: Homo sapiens
[8] = biological target: T4, G-protein coupled receptor 35 (Homo sapiens, UniProt Q9HC97); experiment: inhibition of zaprinast-stimulated GPR35 beta-arrestin translocation – imaging, U2OS, beta-arrestin-GFP, zaprinast agonist, primary screen (AID 2058); assay type: functional;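 further: antagonist potency meaning inhibition of agonist-induced arrestin redistribution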
T4 sequence (Q9HC97 whole entry): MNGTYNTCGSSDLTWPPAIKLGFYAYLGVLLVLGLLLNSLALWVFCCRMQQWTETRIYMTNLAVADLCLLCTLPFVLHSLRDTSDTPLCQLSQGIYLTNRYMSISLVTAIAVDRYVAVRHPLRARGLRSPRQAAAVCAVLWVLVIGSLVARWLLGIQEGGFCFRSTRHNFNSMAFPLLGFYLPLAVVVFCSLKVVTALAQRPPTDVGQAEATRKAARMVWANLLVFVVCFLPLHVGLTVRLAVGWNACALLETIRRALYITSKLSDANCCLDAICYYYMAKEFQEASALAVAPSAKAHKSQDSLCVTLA

[9] = biological target: T4, G-protein coupled receptor 35; experiment: SAR analysis of Antagonists of the GPR35 Receptor using an Image-Based Assay - Set 5. [Related pubchem assays (depositor defined):AID2058, AID2079]; assay type: functional
[10] = biological target: T4, G-protein coupled receptor 35; experiment: SAR Analysis for the identification of Selective Antagonists of ERK1/2 Activity in GPR35-Overexpressing U2OS Cells - Set 2. [Related pubchem assays (depositor defined):AID2058, AID2079]; assay type: functional, cell-based
[11] = biological target: G-protein coupled receptor 55 (Homo sapiens, UniProt Q9Y2T6); experiment: SAR Analysis of Selective Antagonists of GPR55 using an Image-Based Assay - Set 3. [Related pubchem assays (depositor defined):AID2058, AID2079]; assay type: functional
Sequence of G-protein coupled receptor 55 (Q9Y2T6 whole entry): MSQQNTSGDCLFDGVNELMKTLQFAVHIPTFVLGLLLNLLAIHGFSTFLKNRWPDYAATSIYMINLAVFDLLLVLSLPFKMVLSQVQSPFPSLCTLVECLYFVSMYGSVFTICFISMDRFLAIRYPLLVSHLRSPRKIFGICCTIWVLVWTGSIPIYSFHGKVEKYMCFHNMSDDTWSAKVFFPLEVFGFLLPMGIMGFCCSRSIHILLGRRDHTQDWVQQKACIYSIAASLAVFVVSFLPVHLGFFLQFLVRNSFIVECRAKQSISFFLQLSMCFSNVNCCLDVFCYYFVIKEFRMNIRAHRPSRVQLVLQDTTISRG

[12] = biological target: T5, E3 ubiquitin-protein ligase XIAP (Homo sapiens, UniProt P98170); experiment: Counter Screen using XIAP-Bir3 of the Chemical Antagonists of IAP-family anti-apoptotic proteins confirmation assay. [Related pubchem assays (depositor defined):AID1018, AID1449, AID1513, AID1638, AID1749, AID1750, AID488957, AID488963]
T5 sequence (P98170 whole entry): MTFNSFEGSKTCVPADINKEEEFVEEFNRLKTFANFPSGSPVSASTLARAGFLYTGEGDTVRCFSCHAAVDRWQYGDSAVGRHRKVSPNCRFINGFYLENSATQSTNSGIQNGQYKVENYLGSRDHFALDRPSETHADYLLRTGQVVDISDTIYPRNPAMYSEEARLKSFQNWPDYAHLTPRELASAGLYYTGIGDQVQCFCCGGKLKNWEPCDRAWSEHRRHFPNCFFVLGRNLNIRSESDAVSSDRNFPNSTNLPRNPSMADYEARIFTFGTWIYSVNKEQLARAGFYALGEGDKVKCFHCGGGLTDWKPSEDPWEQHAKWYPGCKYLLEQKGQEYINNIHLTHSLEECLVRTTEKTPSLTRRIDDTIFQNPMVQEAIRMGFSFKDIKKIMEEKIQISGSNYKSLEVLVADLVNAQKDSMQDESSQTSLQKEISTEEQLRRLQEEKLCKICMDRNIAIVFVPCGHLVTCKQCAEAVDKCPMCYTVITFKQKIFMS

[13] = biological target: T5, E3 ubiquitin-protein ligase XIAP; experiment: Chemical Antagonists of IAP-family anti-apoptotic proteins confirmation. [Related pubchem assays (depositor defined):AID1018, AID1513, AID1514, AID1638, AID1749, AID1750, AID488957, AID488963]
[14] = biological target: T5, E3 ubiquitin-protein ligase XIAP; experiment: small molecules displacing peptide from XIAP – biochemical, IAP family, fluorescence polarization (AID 1018); assay type: functional
[15] = biological target: Eukaryotic translation initiation factor 4E (Mus musculus, UniProt P63073); experiment: blockers of eIF4G binding by eIF4E – biochemical, TR-FRET, dose response (AID 855); assay type: functional;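 further: potency for disrupting eIF4E binding to eIF4GI seen as loss of FRET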
Sequence of Eukaryotic translation initiation factor 4E (P63073 whole entry): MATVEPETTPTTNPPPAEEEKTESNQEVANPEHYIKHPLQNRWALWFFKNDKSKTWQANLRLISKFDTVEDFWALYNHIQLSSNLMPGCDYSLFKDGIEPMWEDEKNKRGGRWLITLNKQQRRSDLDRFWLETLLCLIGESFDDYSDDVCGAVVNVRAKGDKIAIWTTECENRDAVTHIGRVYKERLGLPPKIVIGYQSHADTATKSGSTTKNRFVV

Hexokinase HKDC1 [16] = biological target: T3, Hexokinase HKDC1; experiment: inhibition of HKDC1 glucose phosphorylation – biochemical, W721R variant, dose response (AID 504729); assay type: functional
[17] = biological target: Induced myeloid leukemia cell differentiation protein Mcl-1 (Homo sapiens, UniProt Q07820); experiment: blockers of MCL1 binding to BIM peptide – biochemical, fluorescence polarization, BIM-BH3 peptide, 1536-well, dose response (AID 2217)
Sequence of Induced myeloid leukemia cell differentiation protein Mcl-1 (Q07820 whole entry): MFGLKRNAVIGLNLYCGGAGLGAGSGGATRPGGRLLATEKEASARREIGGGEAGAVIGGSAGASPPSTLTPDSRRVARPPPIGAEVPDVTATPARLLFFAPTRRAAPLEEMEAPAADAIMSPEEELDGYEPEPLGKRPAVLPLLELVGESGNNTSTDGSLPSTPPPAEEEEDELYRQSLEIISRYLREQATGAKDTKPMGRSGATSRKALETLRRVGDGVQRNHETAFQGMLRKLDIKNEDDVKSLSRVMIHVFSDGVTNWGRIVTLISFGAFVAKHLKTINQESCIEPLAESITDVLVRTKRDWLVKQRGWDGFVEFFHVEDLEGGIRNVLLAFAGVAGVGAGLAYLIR

Bcl-2-like protein 1 = Bcl-2-like protein 1 (Homo sapiens, UniProt Q07817); experiment: blockers of BCLXL peptide binding – biochemical, fluorescence polarization, 1536-well, selectivity assay for MCL1 inhibitor project, dose response (AID 2218)
Sequence of Bcl-2-like protein 1 (Q07817 whole entry): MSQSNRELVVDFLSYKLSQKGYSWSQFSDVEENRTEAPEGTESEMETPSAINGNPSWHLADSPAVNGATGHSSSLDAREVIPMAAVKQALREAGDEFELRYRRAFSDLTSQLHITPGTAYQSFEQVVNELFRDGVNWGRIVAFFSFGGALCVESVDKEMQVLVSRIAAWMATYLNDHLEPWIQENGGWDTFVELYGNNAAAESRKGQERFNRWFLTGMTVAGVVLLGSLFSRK

[18] = biological target: Peroxisome proliferator-activated receptor gamma (Homo sapiens, UniProt P37231); experiment: PPARg transcriptional activation, reporter cells – cell-based, luminescence, assay provider, dose response (AID 504447); assay type: functional
Sequence of Peroxisome proliferator-activated receptor gamma (P37231 whole entry): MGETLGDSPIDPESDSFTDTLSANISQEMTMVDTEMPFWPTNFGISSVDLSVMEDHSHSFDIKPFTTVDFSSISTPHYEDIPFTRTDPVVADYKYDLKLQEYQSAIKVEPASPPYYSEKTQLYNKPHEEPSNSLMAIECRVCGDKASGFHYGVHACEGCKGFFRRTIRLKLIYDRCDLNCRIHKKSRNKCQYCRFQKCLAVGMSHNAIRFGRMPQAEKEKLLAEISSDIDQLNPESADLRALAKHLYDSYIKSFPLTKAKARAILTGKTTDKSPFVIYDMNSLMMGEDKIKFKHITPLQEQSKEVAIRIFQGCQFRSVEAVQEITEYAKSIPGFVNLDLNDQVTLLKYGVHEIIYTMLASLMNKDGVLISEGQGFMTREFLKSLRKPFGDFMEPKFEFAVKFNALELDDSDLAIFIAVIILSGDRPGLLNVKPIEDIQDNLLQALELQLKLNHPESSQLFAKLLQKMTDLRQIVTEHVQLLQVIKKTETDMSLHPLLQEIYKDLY

[19] = biological target: T6, Small ubiquitin-related modifier 1 (Homo sapiens, UniProt P63165); experiment: SUMO1 protein interaction blockers, potency – biochemical, fluorescence polarization, uHTS hits, dose response (AID 624382); assay type: functional; conditions: read-out: IC50_Mean
T6 sequence (P63165 whole entry): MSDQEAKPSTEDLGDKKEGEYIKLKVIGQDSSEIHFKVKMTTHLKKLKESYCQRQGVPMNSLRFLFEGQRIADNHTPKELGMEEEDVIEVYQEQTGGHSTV

[20] = biological target: T7, Probable nicotinate-nucleotide adenylyltransferase (Staphylococcus aureus (strain N315), UniProt P65502); assay type: functional, Staphylococcus aureus subsp. aureus N315;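 on IC50 Mean: confirmatory dose-response retesting of NadD inhibitor hits first found in an ultra-high-throughput screen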
T7 sequence (P65502 whole entry): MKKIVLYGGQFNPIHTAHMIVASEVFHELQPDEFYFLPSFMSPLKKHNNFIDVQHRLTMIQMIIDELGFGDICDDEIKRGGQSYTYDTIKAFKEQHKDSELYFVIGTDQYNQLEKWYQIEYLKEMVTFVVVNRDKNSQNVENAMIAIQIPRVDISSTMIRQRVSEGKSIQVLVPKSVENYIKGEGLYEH

[21] = biological target: T7, Probable nicotinate-nucleotide adenylyltransferase; assay type: functional, Staphylococcus aureus subsp. aureus N315; conditions: read-out: IC50_Mean
[22] = biological target: T6, Small ubiquitin-related modifier 1; experiment: SUMO1 protein-protein binding blockers, potency – biochemical, FRET, dose response (AID 624383); assay type: functional; conditions: read-out: IC50_Mean
[23] = viability loss in HeLa cells – cytotoxicity control for MgcRacGAP inhibitor project, dose response (AID 624300); assay type: functional
[24] = biological target: T8, Rac GTPase-activating protein 1 (Homo sapiens, UniProt Q9H0H5); experiment: blockers of MgcRacGAP-driven Rac1 GTP hydrolysis – biochemical, ADP Hunter fluorescence, primary and confirmatory, confirmation (AID 624330); assay type: functional
T8 sequence (Q9H0H5 whole entry): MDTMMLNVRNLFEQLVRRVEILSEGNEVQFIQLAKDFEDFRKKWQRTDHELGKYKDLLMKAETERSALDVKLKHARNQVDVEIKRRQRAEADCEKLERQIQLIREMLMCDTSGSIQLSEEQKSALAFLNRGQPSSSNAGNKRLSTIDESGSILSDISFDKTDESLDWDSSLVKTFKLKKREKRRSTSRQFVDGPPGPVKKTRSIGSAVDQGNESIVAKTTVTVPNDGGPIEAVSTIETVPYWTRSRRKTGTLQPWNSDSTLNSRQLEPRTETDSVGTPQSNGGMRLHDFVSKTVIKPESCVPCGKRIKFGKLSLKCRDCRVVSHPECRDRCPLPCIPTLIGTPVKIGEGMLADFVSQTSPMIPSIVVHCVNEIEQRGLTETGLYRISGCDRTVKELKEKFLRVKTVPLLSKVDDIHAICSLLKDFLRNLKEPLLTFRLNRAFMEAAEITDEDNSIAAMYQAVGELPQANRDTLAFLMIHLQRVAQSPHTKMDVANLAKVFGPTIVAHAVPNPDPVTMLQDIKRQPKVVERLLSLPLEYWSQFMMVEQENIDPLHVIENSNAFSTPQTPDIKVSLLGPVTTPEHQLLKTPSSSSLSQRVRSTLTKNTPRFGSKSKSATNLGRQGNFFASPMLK

Sequence of Glyceraldehyde-3-phosphate dehydrogenase (P04406 whole entry): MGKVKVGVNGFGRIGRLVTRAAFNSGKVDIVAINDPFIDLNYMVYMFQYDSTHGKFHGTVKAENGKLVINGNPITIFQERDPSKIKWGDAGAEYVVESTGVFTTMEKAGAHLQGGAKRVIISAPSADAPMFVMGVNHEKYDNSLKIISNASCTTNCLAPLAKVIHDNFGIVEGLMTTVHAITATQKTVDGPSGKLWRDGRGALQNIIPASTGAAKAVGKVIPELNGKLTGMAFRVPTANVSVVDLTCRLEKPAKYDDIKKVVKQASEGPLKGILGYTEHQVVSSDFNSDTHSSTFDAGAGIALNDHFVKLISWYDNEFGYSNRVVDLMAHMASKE

c1cncc(-n2cncn2)c1
IC50 [1]: > 100 µM (not active) | IC50 [2]: > 100 µM (inactive)

CC(C)(Oc1ccccc1)C(=O)Nc1nnc(-c2ccc3ccccc3c2)o1
EC50 [3]: 1.1 µM (active)

O=C(COc1ccc(-c2ccccc2)cc1)N1CCN(S(=O)(=O)Cc2ccccc2)CC1
IC50 (J774.A1): > 25 µM (inactive)

CCN(CC)CCNC(=O)CCCNC(=O)Cn1cnc2sc(C)c(C)c2c1=O
EC50 (T-cell): 9.52 µM (active)

Cc1ccc(S(=O)(=O)NCc2ccc(C(=O)NCCN3CCC(c4ccccc4)CC3)cc2)cc1
IC50 (Mu-type opioid receptor): 3.88 µM (active) | IC50 [4]: > 20 µM (inactive) | IC50 [5]: > 32 µM (inactive) | IC50 [6]: 10.6 µM (inactive)

CC(=NNC(=S)N1CCCCC1)c1cccc(C)n1
EC50 (Hexokinase HKDC1 [7]): 14.5 µM (active) | IC50 (Nonstructural protein 1): 3.84 µM (active) | EC50 (Hexokinase-1): > 80 µM (inactive) | AC50 (HEK293): 2.74 µM (active)

COC(=O)c1cnn(-c2ccc(F)cc2F)c1/C=N/NC(=S)NC(C)(C)C
IC50 [8]: < 0.5 µM (active) | IC50 [9]: 0.16 µM (active) | IC50 [10]: 1.39 µM (active) | IC50 [11]: 9.08 µM (active)

O=C(O)[C@@H](c1ccccc1)N1Cc2ccccc2C1=O
IC50 [12]: > 200 µM (inactive) | IC50 [13]: 65.6 µM (active) | IC50 [14]: 28.3 µM (active) | IC50 [15]: 13.8 µM (active) | IC50 (Hexokinase HKDC1 [16]): 13.7 µM (active)

O=C(C1=C(O)C(=O)N(c2nc3ccc(Cl)cc3s2)C1c1ccco1)c1ccco1 (stereo unspecified)
IC50 [17]: 28.8 µM (not active) | IC50 (Bcl-2-like protein 1): > 109 µM (not active) | EC50 [18]: 0.7 µM (active) | IC50 [19]: > 66.6 µM (inactive) | IC50 [20]: 13.8 µM (active) | IC50 [21]: 56.8 µM (active) | IC50 [22]: 8.8 µM (active) | CC50 [23]: 100 µM (active) | IC50 [24]: 118 µM (active)
